Our source for the melting point values is a melting point compilation (Tetko et al.; mined from patent text by program, amines drawn as free bases though some values may be those of a salt).

SMILES strings stand for the structures. Residues, ends and D or L forms follow the SMILES beside them. *: point of attachment. Cbz = O=C(OCc1ccccc1)* Bounds are passed on as bounds.

As a reminder, the melting point is the temperature of the solid-liquid transition.

For the molecule `COc1ccccc1-c1cccn2nc(Nc3ccc4c(c3)CCN(CCS(C)(=O)=O)CC4)nc12`, the melting point was 91 to 94 °C.
The value for `O=C(NC1CCCC1)c1ccc(F)c2c1CC(N(CCCc1c[nH]c3ccc(F)cc13)C1CCC1)CO2` (stereo not given) was 133 °C.
The value for `CCNC(=O)c1cc2c(c(Cl)c1O)CCN(C(=O)OC(C)(C)C)C[C@@H]2c1ccc(O)cc1` was 120 to 125 °C; that for `CCCCCCCCC#CCC#CCC#CCO` was 48 °C.
The value for `O=[N+]([O-])c1ccc(N2CCN(c3cc(N4CCCC4)nc(N4CCCC4)n3)CC2)cc1` was 200 to 201 °C; that for `Nc1c2ccccc2nc2c(=O)[nH][nH]c(=O)c12` was 167 to 168 °C; that for `Cc1ccc(-c2cc(-c3ccccc3)cc3c2OC(CN)C3)cc1` (stereo not given) was 159 to 162 °C.
Consider `c1ccc(COc2ccc(-c3cc(NC(Cc4ccccc4)c4nnn[nH]4)ncn3)cc2)cc1` (stereo not given), for which the melting point was 150 °C.
The value for `O=C(O)C1Cc2c(ncn2CCc2ccccc2)CN1C(=O)Cc1ccccc1` (stereo not given) was 215 to 220 °C; that for `Cc1ccc(-c2nc(OC(C)C)c(Br)c(OC(C)C)n2)cc1` was 74 to 75 °C.
`CCCCc1nc2cccc(C(=O)OC)c2n1Cc1ccc(-c2ccccc2-c2nnn[nH]2)cc1` came in with a melting point of 153 to 155 °C.
With `CCOc1c(C(=O)c2cccs2)cnc2[nH]ncc12` the figure was 202 to 205 °C; with `CCOC(=O)c1ccc(Nc2ccc([N+](=O)[O-])cc2[N+](=O)[O-])cc1`, 99 to 102 °C.
`NC(=O)CCC(NC(=O)OCc1ccccc1)C(=O)NCC(=O)NCC(=O)NC(CO)C(=O)NC(CC(N)=O)C(=O)NC(Cc1ccccc1)C(N)=O` (stereo not given) (Cbz-QGGSNF-NH2; configuration not given here) showed a melting point of 225 to 227 °C.
With `Cc1c[nH]c2c(=O)n(CC(=O)NC3CC(=O)OC3OCc3ccccc3)cnc12` (stereo not given) the figure was 240 to 244 °C; with `COc1ccc(OC)c2c1C(=O)c1c-2[nH]c2ccc(O)cc12`, above 260 °C; with `CCCCCCCCCCCC(=O)N1CCOC1=O`, 63 to 65 °C.
The molecule `CCN(CC)C(=O)n1ccc(S(=O)(=O)c2c(C)cccc2OC)n1` had a melting point of 71 to 73 °C.
`O=C(Nc1cccc(-c2ccnc3c(C(=O)c4cccs4)cnn23)c1)c1c(F)cccc1F` displayed a melting point of 159 to 160 °C.
In turn, `COc1cc(Nc2c(C#N)cnc3cc4cc(OCCN5CCN(C)CC5)c(OC)cc4cc23)c(Cl)cc1F` showed a melting point of 197 to 205 °C.
The value for `CCOC(=O)COc1ccc(N2CCN(S(=O)(=O)c3ncn(C)c3Cl)CC2)cc1` was 148 to 149 °C; that for `CCOC(=O)C(C)(Sc1cc2ccccc2[nH]1)c1ccccc1` (stereo not given) was 97 to 99 °C.
For the molecule `Cn1nnnc1SCCCC(=O)c1ccc2ccccc2c1`, the melting point was 118 to 120 °C.
The value for `O=C(Nc1ccc(C(=O)NCCCN2CCOCC2)cc1O)C(=O)Nc1cc(Cl)cc(Cl)c1O` was 227 °C; that for `CC(C)n1cc(C(=O)O)c2ccc(Br)cc21` was 207 to 209 °C.
Molecule `CCOC(=O)[C@@H]1C[C@H](C(=O)O)Nc2cc(Cl)cc(Cl)c21` (relative stereo) showed a melting point of 160 to 162 °C.
The value for `CN(C)C1(c2ccccc2)CCC(CNC(=O)N2CCC(c3c[nH]c4ccccc34)C2)CC1` (stereo not given) was 103 to 106 °C.
With `Cc1cc(-c2c(-c3ccccc3)nc3ccc(N4CCC5(CCCNC5)CC4)nn23)ccn1` the figure was 175 to 179 °C.
The molecule `CCCN(CCCCc1coc2c(OC)cccc12)C1COc2c(F)ccc(C(N)=O)c2C1` (stereo not given) displayed a melting point of 99 to 110 °C.
The molecule `O=C(O)CC(Cc1c[nH]c2ccccc12)C(=O)O` (stereo not given) showed a melting point of 144 to 145 °C.
`O=C(O)CCC(=O)N1CCCc2cc(S(=O)(=O)N3CCN(c4cccc(Cl)c4)CC3)ccc21` came in with a melting point of 135 to 136 °C.
The value for `O=C(O)CCc1cc(OCCCc2cn(-c3ccc(C(F)(F)F)cn3)nc2C2CCCCC2)nn1-c1ccccc1` was 182 to 183 °C.
Molecule `Cc1ccc(C2C(=O)Oc3c2cc(C(C)(C)C)cc3C(C)(C)C)cc1C` (stereo not given) yielded a melting point of 130 to 132 °C.
The value for `CCCOC1CCC2C3CCC4=CC(=O)CCC4C3CCC12CC` (stereo not given) was 83 to 84 °C; that for `Cc1cc(C)cc(OCC(O)CCN2CCN(c3ccccc3)CC2)c1` (stereo not given) was 88 to 90 °C; that for `CC(c1ccc2c(c1)C(=O)c1ccccc1C2=O)N1CCNCC1` (stereo not given) was 97.7 to 98.1 °C.
With `N#C/C=C\c1ccccc1C(=O)Cl` the figure was 72 to 74 °C; with `O=C(NCCc1c[nH]c2ccccc12)C1CCCCC1`, 98 to 99 °C; with `CCOc1ccc2c(c1)c(I)c1n2CCC1`, 128 to 129 °C.
Molecule `NC(=O)CC(CC(N)=O)c1cccc(F)c1` came in with a melting point of 194 to 196 °C.
With `CCCCc1nc2cccc(C(=O)OC)c2n1Cc1ccc(-c2ccccc2N2CC(=O)NC2=O)cc1` the figure was 149 to 151 °C; with `CCCn1nc2c(N)nc3ccccc3c2c1CC1CCOCC1`, 218 to 220 °C; with `CCn1c(=O)c2[nH]c(/C=C/c3cccc(F)c3C)nc2n(CC)c1=O`, above 270 °C.
`CCc1nc2c(cnn2CC)c(NC2CCOCC2)c1CNC(=O)c1cccc(C(=O)NCc2ccc(C)c(-c3cccc(C=O)c3)c2)c1` showed a melting point of 114 to 117 °C.
With `CCOC(=O)C1=C(COCC(C)O)NC(C)=C(C(=O)OC)C1c1cccc(Cl)c1Cl` (stereo not given) the figure was 110 to 113 °C; with `CC(=NNC(=N)N)c1sc(-c2ccc(C(C)(C)C)cc2)nc1C`, 252 to 253 °C; with `C#Cc1cccc(Nc2ncnc3ccc(S(=O)(=O)n4ccc(C=CC(=O)OCC)c4)cc23)c1`, 154 to 156 °C.
For `CC(C)(C)OC(=O)N1CCN(c2cccc(Cl)c2/C=N/NS(=O)(=O)c2ccccc2)CC1`, the melting point fell in the range of 162 to 165 °C.
The value for `O=C(Nc1ccccc1)OCCCC(=O)c1ccccc1` was 121 to 123 °C; that for `CCCCCCCCCCCC(=O)OC1CC(c2ccccc2)NC(c2ccccc2)C1C` (stereo not given) was 56 to 59 °C.
As for `Cc1cccc(-c2cc(C(=O)NCCCCCCCc3ccccc3)cc(-c3cccc(C)c3)c2OCC(=O)O)c1`, the melting point was in the range of 58 to 62 °C.
The value for `CCC(CC)Nc1cc(C(=O)O)ccc1N1CCCC1=O` was 178 to 180 °C.
Molecule `CCN1c2ncc(CCl)cc2C(=O)N(C)c2ccc(Cl)nc21` showed a melting point of 133 to 134 °C.
With `COc1ccc(C(=O)c2c(Cl)cc(Cl)cc2Cl)cc1Cc1ccc(=O)[nH]n1` the figure was 179 to 180 °C; with `COc1ccc(C=C2CCN(C(=O)OCc3ccccc3)CC2)cc1[N+](=O)[O-]`, 107 to 108 °C; with `CCNc1ncccc1-c1sccc1-c1cccnc1F`, 86 to 89 °C.
With `O=C(CCCCBr)NC(=O)C1CC1` the figure was 114 to 115 °C; with `C=C1CCCN(C(=O)c2ccc(NC(=O)c3ccccc3C)cc2)c2ccccc21`, 216 to 217 °C; with `CC(C)CCc1c(-c2ccc(S(C)(=O)=O)cc2)cnn(-c2ccc(F)c(F)c2)c1=O`, 55 to 58 °C.
On to `O=C(NC=Cc1ccc(O)cc1)c1ccc(Cl)cc1`, for which the melting point was 243 to 244 °C.
The value for `NC1=C([C@H]2CC[C@H](c3ccc(Cl)cc3)CC2)C(=O)c2ccccc2C1=O` was 210 to 215 °C; that for `O=C(NCc1ccccc1)c1ccc(C=CC(=O)N2CCc3c([nH]c4ccccc34)C2c2ccc3c(c2)OCO3)cc1` (stereo not given) was 203 °C.
The molecule `COc1ccc(Br)c2c1CC(=O)CO2` gave a melting point of 97 to 100 °C.
With `CCOC(=O)CCc1cnc(-c2cc3cccc(N(C)S(=O)(=O)c4cccs4)c3[nH]2)s1` the figure was 126 to 127 °C; with `O=C(Cc1cccs1)NC1CN(C(C(=O)O)c2ccc(OC(=O)c3ccccc3)cc2)C1=O` (stereo not given), 129 to 131 °C; with `CN(C)c1nc2[nH]c3c(c(=O)n2n1)SCCC3`, 130 °C.
`Cc1cc(CC(C)(C)NCC(O)c2cc(OCc3ccccc3)cc3c2OCC(=O)N3)ccc1F` (stereo not given) had a melting point of 228 to 230 °C.
On to `O=Cc1cccc(OCc2ccco2)c1`, for which the melting point is 144 to 146 °C.
The value for `c1ccc(Nc2ccc(-c3ccc(N(c4ccc(-c5ccccc5)cc4)c4ccc(-c5ccccc5)cc4)cc3)cc2)cc1` was 146 °C; that for `Cc1cc(CO)cc(C#N)n1` was 136 to 138 °C; that for `CSCc1noc(-c2cc(C(C)(C)C)c(O)c(C(C)(C)C)c2)n1` was 97 to 98 °C.
`Cc1ccc(S(=O)(=O)OCC(C)(C)CS(N)(=O)=O)cc1` gave a melting point of 59 to 61 °C.
Turning to `CC1(C)OC(=O)Nc2ccc(-c3cncc(Br)c3)cc21`, the melting point was 211 to 212 °C.
With `COc1c(C#N)ccc2c1Cc1ccccc1CS2` the figure was 117 to 118 °C; with `Ic1cnn(-c2cccnc2)c1`, 145 to 146 °C; with `O=C(Cc1c(-c2ccccc2)c2cc(O)c(Cl)cc2oc1=O)Nc1ccc(Cl)cc1C(F)(F)F`, 246 to 247 °C.
Regarding `CCOC(=O)CCCCN(C(=O)c1ccc(Cl)cc1)c1cccc2ccccc12`, the melting point fell in the range of 74 to 75 °C.
In turn, `O=C1CCc2cc3c(cc21)CCC3` showed a melting point of 72.4 to 74.8 °C.
Molecule `CCCN(CCC)[C@H]1COc2c(F)ccc(C(=O)NC)c2C1` came in with a melting point of 72 to 73 °C.
Molecule `CCn1c(N)c(C(N)=O)c(=O)c2cnc(Nc3ccc(N4CCN(C(C)=O)CC4)cc3)nc21` came in with a melting point of 179 °C.
The value for `CC(C)(C)C(O)c1ccc(Oc2ccccc2)cc1` (stereo not given) was 79 to 80 °C.
With `CCCCCCCCCCCCCCC(C)C(=O)O` (stereo not given) the figure was 44 to 46 °C; with `O=[N+]([O-])c1cn(-c2cccnc2)nc1Br`, 139 to 141 °C.
The value for `Fc1ccc2c(c1)nc(C(F)(F)C(F)(F)F)n2C1CCNCC1` was 177 to 178 °C; that for `COc1ccc(NC2=NC(C)(C)Cc3cc(OC)c4c(c32)CC(C)(C)O4)cc1` was 139 to 140 °C.
